Assay results as given in patent publication US20210330686A1, “COMPOSITION CONTAINING 2'-FUCOSYLLACTOSE FOR PREVENTING STROKE” (Advanced Protein Technologies Corp., priority 2018, published 2021).

What was measured:
[1] = test system: brain injury induced by middle cerebral artery occlusion (MCAO); experiment: TTC staining of stroke-induced brain (MCAO model) after oral pre-administration; format: in vivo, Sprague-Dawley rats
[2] = test system: brain injury induced by middle cerebral artery occlusion (MCAO); experiment: Behavioral test: spontaneous exercise of stroke-induced animals (MCAO model); format: in vivo, Sprague-Dawley rats

2′-fucosyllactose [2′-FL]
brain damage compared to the control group not administered ([1]; experimental group administered with 2'-fucosyllactose): significantly suppressed | brain damage suppression (TTC staining) ([1]; oral pre-administration 0-7 weeks, 200, 300, 400 mg/kg, before MCAO): the longer the 2′-FL pre-administration period and the higher the dose, the better the effect on brain damage suppression | exercise amount 2 days after stroke induction (D2) ([2]; oral 300 mg/kg for 3 days before MCAO): significantly increase | exercise amount 2 days after stroke induction (D2) ([2]; oral 400 mg/kg for 3 days before MCAO): no statistically significant increase in exercise | total exercise amount 2 days after stroke induction (D2) ([2]; oral pre-administration for 3 days, all doses): found to increase the total exercise amount
